According to patent US20240287071A1, “CLASS OF IMIDAZOLIDINOPYRIMIDONE COMPOUNDS AND USE THEREOF IN TREATMENT OF HSCLPP-MEDIATED DISEASES” (SICHUAN UNIVERSITY, priority 2021, published 2024):

Target: HsClpP (Homo sapiens, UniProt Q16740)
Test: HsClpP enzyme hydrolysis of short peptide substrate AC-WLA-AMC
Conditions: promoting hydrolysis of short peptide substrate by HsClpP, relative to blank control
Procedure: This study evaluated the regulatory activity of the compounds on HsClpP by examining the hydrolysis effects of HsClpP protein on the AC-WLA-AMC substrate . […] The small molecules and the HsClpP protein solution were added to a flat-bottomed black 96-well plate, with three replicate wells for each group. […] DMSO was used as a negative control instead of small molecules. The multiple of readings at different concentrations against the readings of DMSO group was recorded as an index for evaluation of hydrolysis activity. . . . GraphPad Prism was used to plot the obtained multiple values and calculate the EC50 values.

Sequence of HsClpP (Q16740 57-277): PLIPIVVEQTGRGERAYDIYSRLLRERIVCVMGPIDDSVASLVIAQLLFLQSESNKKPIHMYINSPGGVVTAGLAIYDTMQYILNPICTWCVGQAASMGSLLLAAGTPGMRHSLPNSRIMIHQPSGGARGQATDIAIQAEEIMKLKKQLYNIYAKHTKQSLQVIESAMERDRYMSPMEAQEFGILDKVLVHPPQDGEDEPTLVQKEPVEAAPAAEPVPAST

SMILES	Regulatory efficacy 1 μM	Regulatory efficacy 10 μM
CCN1CCn2c1nc(=O)c1c2CCN(Cc2ccccc2)C1 [Compound 3, 7-benzyl-3-ethyl-2,3,6,7,8,9-hexahydroimidazo[1,2-a]pyrido[3,4-e]pyrimidin-5(1H)-one]	+ (+ indicating that the increased efficacy is less than 50% of the blank control group)	+ (+ indicating that the increased efficacy is less than 50% of the blank control group)
CC(C)CCN1CCn2c1nc(=O)c1c2CCN(Cc2ccccc2)C1 [Compound 4, 7-benzyl-3-isopentyl-2,3,6,7,8,9-hexahydroimidazo[1,2-a]pyrido[3,4-e]pyrimidin-5(1H)-one]	+ +	+ +
O=c1nc2n(c3c1CN(Cc1ccccc1)CC3)CCN2c1ccccc1 [Compound 9, 7-benzyl-3-phenyl-2,3,6,7,8,9-hexahydroimidazo[1,2-a]pyrido[3,4-e]pyrimidin-5(1H)-one]	+ (+ indicating that the increased efficacy is less than 50% of the blank control group)	+ +
O=c1nc2n(c3c1CN(Cc1ccccc1)CC3)CCN2CCc1ccccc1 [Compound 10, 7-benzyl-3-(phenylethyl)-2,3,6,7,8,9-hexahydroimidazo[1,2-a]pyrido[3,4-e]pyrimidin-5(1H)-one]	+ +	+ +
O=c1nc2n(c3c1CN(Cc1ccccc1)CC3)CCN2Cc1cccnc1 [Compound 23, 7-benzyl-3-(3-pyridinylmethyl)-2,3,6,7,8,9-hexahydroimidazo[1,2-a]pyrido[3,4-e]pyrimidin-5(1H)-one]	+ (+ indicating that the increased efficacy is less than 50% of the blank control group)	+ +
O=c1nc2n(c3c1CN(Cc1ccccc1)CC3)CCN2Cc1ccncc1 [Compound 24, 7-benzyl-3-(4-pyridinylmethyl)-2,3,6,7,8,9-hexahydroimidazo[1,2-a]pyrido[3,4-e]pyrimidin-5(1H)-one]	+ (+ indicating that the increased efficacy is less than 50% of the blank control group)	+ +
O=c1nc2n(c3c1CN(Cc1ccccc1)CC3)CCN2Cc1ccco1 [Compound 25, 7-benzyl-3-(2-furfuryl)-2,3,6,7,8,9-hexahydroimidazo[1,2-a]pyrido[3,4-e]pyrimidin-5(1H)-one]	+ (+ indicating that the increased efficacy is less than 50% of the blank control group)	+ +
Cc1ccccc1CN1CCn2c1nc(=O)c1c2CCN(C(=O)OC(C)(C)C)C1 [Compound 27, 7-tert-butoxycarbonyl-3-(2-methylbenzyl)-2,3,6,7,8,9-hexahydroimidazo[1,2-a]pyrido[3,4-e]pyrimid in-5(1H)-one]	+ +	+ +
Cc1ccccc1CN1CCn2c1nc(=O)c1c2CCN(CC(C)C)C1 [Compound 29, 7-isobutyl-3-(2-methylbenzyl)-2,3,6,7,8,9-hexahydroimidazo[1,2-a]pyrido[3,4-e]pyrimidin-5(1H)-one]	+ (+ indicating that the increased efficacy is less than 50% of the blank control group)	+ (+ indicating that the increased efficacy is less than 50% of the blank control group)
Cc1ccccc1CN1CCn2c1nc(=O)c1c2CCN(CC2CC2)C1 [Compound 30]	+ (+ indicating that the increased efficacy is less than 50% of the blank control group)	+ (+ indicating that the increased efficacy is less than 50% of the blank control group)
Cc1ccccc1CN1CCn2c1nc(=O)c1c2CCN(CC2CCCCC2)C1 [Compound 31, 7-cyclohexylmethyl-3-(2-methylbenzyl)-2,3,6,7,8,9-hexahydroimidazo[1,2-a]pyrido[3,4-e]pyrimidin-5(1H)-one]	+ (+ indicating that the increased efficacy is less than 50% of the blank control group)	+ +
Cc1ccc(CN2CCc3c(c(=O)nc4n3CCN4Cc3ccccc3C)C2)cc1 [Compound 33, 3-(2-methylbenzyl)-7-(4-methylbenzyl)-2,3,6,7,8,9-hexahydroimidazo[1,2-a]pyrido[3,4-e]pyrimidin-5(1H)-one]	+ +	+ +
Cc1ccccc1CN1CCn2c1nc(=O)c1c2CCN(Cc2ccccc2C#N)C1 [Compound 34, 2-((3-(2-methylbenzyl)-5-oxo-2,3,6,7,8,9-hexahydroimidazo[1,2-a]pyrido[3,4-e]pyrimidin-7(6H)-yl)methyl)benzonitrile]	+ +	+ +
Cc1ccccc1CN1CCn2c1nc(=O)c1c2CCN(Cc2ccc(F)c(F)c2)C1 [Compound 36, 7-(3,4-difluorobenzyl)-3-(2-methylbenzyl)-2,3,6,7,8,9-hexahydroimidazo[1,2-a]pyrido[3,4-e]pyrimidin-5(1H)-one]	+ +	+ +
Cc1ccccc1CN1CCn2c1nc(=O)c1c2CCN(Cc2ccc(F)cc2F)C1 [Compound 37, 7-(2,4-difluorobenzyl)-3-(2-methylbenzyl)-2,3,6,7,8,9-hexahydroimidazo[1,2-a]pyrido[3,4-e]pyrimidin-5(1H)-one]	+ (+ indicating that the increased efficacy is less than 50% of the blank control group)	+ +
Cc1ccccc1CN1CCn2c1nc(=O)c1c2CCN(Cc2ccc(F)cc2)C1 [Compound 38, 7-(4-fluorobenzyl)-3-(2-methylbenzyl)-2,3,6,7,8,9-hexahydroimidazo[1,2-a]pyrido[3,4-e]pyrimidin-5(1H)-one]	+ +	+ +
Cc1ccccc1CN1CCn2c1nc(=O)c1c2CCN(C(=O)Cc2ccccc2)C1 [Compound 40, 3-(2-methylbenzyl)-7-(2-phenylacetyl)-2,3,6,7,8,9-hexahydroimidazo[1,2-a]pyrido[3,4-e]pyrimidin-5(1H)-one]	+ (+ indicating that the increased efficacy is less than 50% of the blank control group)	+ (+ indicating that the increased efficacy is less than 50% of the blank control group)
Cc1ccccc1CN1CCn2c1nc(=O)c1c2CCN(CCCCc2ccccc2)C1 [Compound 41, 3-(2-methylbenzyl)-7-(4-phenylbutyl)-2,3,6,7,8,9-hexahydroimidazo[1,2-a]pyrido[3,4-e]pyrimidin-5 (1H)-one]	+ (+ indicating that the increased efficacy is less than 50% of the blank control group)	+ (+ indicating that the increased efficacy is less than 50% of the blank control group)
Cc1ccccc1CN1CCn2c1nc(=O)c1c2CCN(CCc2ccccc2)C1 [Compound 42, 3-(2-methylbenzyl)-7-phenethyl-2,3,6,7,8,9-hexahydroimidazo[1,2-a]pyrido[3,4-e]pyrimidin-5(1H)-one]	+ (+ indicating that the increased efficacy is less than 50% of the blank control group)	+ +
Cc1ccccc1CN1CCn2c1nc(=O)c1c2CCN(Cc2cccnc2)C1 [Compound 43, 3-(2-methylbenzyl)-7-(pyridin-3-methyl)-2,3,6,7,8,9-hexahydroimidazo[1,2-a]pyrido[3,4-e]pyrimidi n-5(1H)-one]	+ (+ indicating that the increased efficacy is less than 50% of the blank control group)	+ +
Cc1ccccc1CN1CCn2c1nc(=O)c1c2CCN(Cc2ccncc2)C1 [Compound 44, 3-(2-methylbenzyl)-7-(pyridin-4-methyl)-2,3,6,7,8,9-hexahydroimidazo[1,2-a]pyrido[3,4-e]pyrimidi n-5(1H)-one]	+ (+ indicating that the increased efficacy is less than 50% of the blank control group)	+ +
Cc1ccccc1CN1CCn2c1nc(=O)c1c2CCN(c2nncs2)C1 [Compound 45, 3-(2-methylbenzyl)-7-(1,3,4-thiadiazol-2-yl)-2,3,6,7,8,9-hexahydroimidazo[1,2-a]pyrido[3,4-e]pyri midin-5(1H)-one]	+ (+ indicating that the increased efficacy is less than 50% of the blank control group)	+ (+ indicating that the increased efficacy is less than 50% of the blank control group)
Cc1ccccc1CN1CCCn2c1nc(=O)c1c2CCN(Cc2ccccc2)C1 [Compound 46, 3-Benzyl-7-(2-methylbenzyl)-1,2,3,4,7,8,9, 10-octahydro-5H-pyrido[3,4-e]pyrimido[1,2-a] pyrimidin-5-one]	+ (+ indicating that the increased efficacy is less than 50% of the blank control group)	+ +
Cc1ccccc1CN1CCn2c1nc(=O)c1c2C(F)(F)CN(Cc2ccccc2)C1 [Compound 47, 7-Benzyl-9,9-difluoro-3-(2-methylbenzyl)-2,3,6,7,8,9-hexahydroimidazo[1,2-a]pyrido[3,4-e]pyrimid in-5(1H)-one]	+ +	+ +
Cc1cccc(CN2CCn3c2nc(=O)c2c3C(F)(F)CN(Cc3ccccc3)C2)c1 [Compound 48, 7-Benzyl-9,9-difluoro-3-(3-methylbenzyl)-2,3,6,7,8,9-hexahydroimidazo[1,2-a]pyrido[3,4-e]pyrimid in-5(1H)-one]	+ +	+ +
O=c1nc2n(c3c1CN(Cc1ccccc1)CC3(F)F)CCN2Cc1ccc(F)c(Br)c1 [Compound 49, 7-Benzyl-9,9-difluoro-3-(3-bromo-4-fluorobenzyl)-2,3,6,7,8,9-hexahydroimidazo[1,2-a]pyrido[3,4-e]pyrimidin-5(1H)-one]	+ +	+ +
N#Cc1cccc(CN2Cc3c(n4c(nc3=O)N(Cc3ccc(F)c(F)c3)CC4)C(F)(F)C2)c1 [Compound 50, 3-((3-(3,4-difluorobenzyl)-9,9-difluoro-5-oxo-2,3,6,7,8,9-hexahydroimidazo[1,2-a]pyrido[3,4-e]pyrimidin-7(6H)-yl)methyl)benzonitrile]	+ +	+ +
